Laboratory results as given in US20210363213A1, “GLUCAGON-GLP-1-GIP TRIPLE AGONIST COMPOUNDS” (priority 2013, published 2021).
Where two headings read alike, the source gives them in different places. Numbered stars: 1 amine (or outer) side, 2 acyl side, 3 side chain; on linkers, the order of the positions; unused ones are H or OH. Square brackets hold non-standard residues; d marks the D form. Side chains are listed from the residue outwards. Peptide text beside a SMILES is read from it. * marks the point of attachment. C18 diacid = O=C(O)CCCCCCCCCCCCCCCCC(=O)*; γGlu = O=C(O)[C@H](CCC(=O)[*:2])N[*:1]; AEEA = NCCOCCOCC(=O)O; Aib = CC(C)(N)C(=O)O

Assays:
[1] = molecular target: T1, human GLP-1 R (Homo sapiens, UniProt P43220); assay: Human GLP-1 receptor (GLP-1-R) activity assay, cAMP induction (AlphaScreen) in HEK293 cells; assay type: cell-based; conditions: average EC50, cAMP in HEK293 cells expressing human GLP-1 R, read-out: GLP1 R (EC50 in nM)
T1 construct: expressed in transfected cells
Description: (§1) Briefly, HEK293 cells expressing the human GIP R, GLP-1 R or GCG R (stable cell lines generated through transfection of the cDNA for human GIP R, GLP-1 R or GCG R and selection of stable clones) were seeded at 30,000 cells/well in 96-well microtiter plates coated with 0.01% poly-L-lysine, and grown for 1 day in culture in 200 μl growth medium (DMEM, 10% FCS, Penicillin (100 IU/ml), Streptomycin (100 μg/ml)). On the day of analysis, growth medium was removed and the cells were washed once with 150 μl Tyrode's buffer (Tyrode's Salts (9.6 g/I), 10 mM HEPES, pH 7.4). […] The Assay buffer was removed and cells are lysed in 80 μl Lysis buffer (0.1% w/v BSA, 5 mM HEPES, 0.3% v/v Tween-20) per well. From each well 10 μl of lysed cells were transferred to a 384-well plate and mixed with 15 μl bead-mix (1 Unit/15 μl anti-cAMP Acceptor Beads, 1 Unit/15 μl Donor Beads, and 1 Unit/15 μl Biotinylated cAMP in Assay Buffer). The plates were mixed and incubated in the dark for an hour at room temperature before measuring using an Envision™ plate reader (Perkin-Elmer).
(§2) The resulting cAMP curves were plotted as absolute cAMP concentrations (nM) over log (test compound concentration) and analyzed using the curve fitting program XLfit.
(§3) Parameters calculated to describe both the potency as well as the agonistic activity of each test compound on the receptors were:
(§4) EC50, a concentration resulting in a half-maximal elevation of cAMP levels, reflecting the potency of the test compound.

[2] = molecular target: human GCG R (Homo sapiens, UniProt P47871); conditions: read-out: GCG R (EC50 in nM); Table 2; average EC50; cAMP in HEK293 cells expressing human GCG R
Description: as §1, §2
Parameters calculated to describe both the potency as well as the agonistic activity of each test compound on the receptors were: […]

[3] = molecular target: T2, human GIP R (Homo sapiens, UniProt P48546); assay: Human GIP receptor (GIP-R) activity assay, cAMP induction (AlphaScreen) in HEK293 cells; assay type: cell-based; conditions: average EC50, cAMP in HEK293 cells expressing human GIP R, read-out: GIP R (EC50 in nM)
T2 construct: expressed in transfected cells
T2 sequence (P48546 22-466): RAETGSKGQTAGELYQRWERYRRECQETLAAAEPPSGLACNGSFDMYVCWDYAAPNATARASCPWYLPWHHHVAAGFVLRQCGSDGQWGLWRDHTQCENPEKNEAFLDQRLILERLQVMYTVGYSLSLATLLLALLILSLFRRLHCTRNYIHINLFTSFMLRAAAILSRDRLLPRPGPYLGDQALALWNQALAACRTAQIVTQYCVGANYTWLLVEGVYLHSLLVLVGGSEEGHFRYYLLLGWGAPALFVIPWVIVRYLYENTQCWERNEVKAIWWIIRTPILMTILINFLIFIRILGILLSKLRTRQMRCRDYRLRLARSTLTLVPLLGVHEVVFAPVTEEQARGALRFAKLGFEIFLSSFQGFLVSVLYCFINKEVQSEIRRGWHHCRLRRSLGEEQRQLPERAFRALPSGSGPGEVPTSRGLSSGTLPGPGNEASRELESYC
Description: as §1, §2, §3, §4

[4] = Table 2b (most comprehensive data)

T1 sequence (P43220 24-463): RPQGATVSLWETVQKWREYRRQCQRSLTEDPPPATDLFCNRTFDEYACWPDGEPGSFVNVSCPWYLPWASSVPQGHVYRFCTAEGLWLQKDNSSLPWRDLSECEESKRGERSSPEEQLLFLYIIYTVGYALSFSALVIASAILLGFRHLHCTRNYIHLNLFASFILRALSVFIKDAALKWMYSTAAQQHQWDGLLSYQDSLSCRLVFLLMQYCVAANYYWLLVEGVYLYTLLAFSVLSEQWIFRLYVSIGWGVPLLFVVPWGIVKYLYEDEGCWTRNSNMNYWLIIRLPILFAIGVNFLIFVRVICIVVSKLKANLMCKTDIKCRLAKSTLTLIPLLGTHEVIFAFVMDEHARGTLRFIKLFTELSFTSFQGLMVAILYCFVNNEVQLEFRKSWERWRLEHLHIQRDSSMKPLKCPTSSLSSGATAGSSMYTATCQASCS
Sequence of human GCG R (P47871 26-477): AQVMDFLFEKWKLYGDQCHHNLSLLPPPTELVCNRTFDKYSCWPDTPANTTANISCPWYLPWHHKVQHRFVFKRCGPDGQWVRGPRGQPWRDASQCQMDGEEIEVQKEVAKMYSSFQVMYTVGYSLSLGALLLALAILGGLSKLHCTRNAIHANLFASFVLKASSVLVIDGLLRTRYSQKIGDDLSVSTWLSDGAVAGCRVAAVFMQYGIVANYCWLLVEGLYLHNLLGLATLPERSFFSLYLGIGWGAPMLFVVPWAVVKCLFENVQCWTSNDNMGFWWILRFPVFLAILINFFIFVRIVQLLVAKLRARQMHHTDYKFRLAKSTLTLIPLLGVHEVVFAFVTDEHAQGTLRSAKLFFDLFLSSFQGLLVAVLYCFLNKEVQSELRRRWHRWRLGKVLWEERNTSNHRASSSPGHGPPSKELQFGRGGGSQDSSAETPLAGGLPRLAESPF

CC[C@H](C)[C@H](NC(=O)[C@H](CO)NC(=O)[C@H](Cc1ccc(O)cc1)NC(=O)[C@H](CC(=O)O)NC(=O)[C@H](CO)NC(=O)[C@@H](NC(=O)[C@H](Cc1ccccc1)NC(=O)[C@@H](NC(=O)CNC(=O)[C@H](CCC(N)=O)NC(=O)C(C)(C)NC(=O)[C@@H](N)Cc1ccc(O)cc1)[C@@H](C)O)[C@@H](C)O)C(=O)N[C@@H](Cc1ccc(O)cc1)C(=O)N[C@@H](CC(C)C)C(=O)N[C@@H](CCC(=O)O)C(=O)N[C@@H](CCCCN)C(=O)N[C@@H](CCCCN)C(=O)N[C@@H](C)C(=O)N[C@@H](C)C(=O)N[C@@H](Cc1c[nH]cn1)C(=O)N[C@@H](CC(=O)O)C(=O)N[C@@H](Cc1ccccc1)C(=O)N[C@H](C(=O)N[C@@H](CCC(=O)O)C(=O)N[C@@H](Cc1c[nH]c2ccccc12)C(=O)N[C@@H](CC(C)C)C(=O)N[C@@H](CC(C)C)C(=O)N[C@@H](CO)C(=O)N[C@@H](C)C(N)=O)C(C)C [Compound 14] (HELM PEPTIDE1{Y.[Aib].Q.G.T.F.T.S.D.Y.S.I.Y.L.E.K.K.A.A.H.D.F.V.E.W.L.L.S.A.[am]}$$$$V2.0) showed an EC50 ([1]; Table 2) of 0.013 nM, an EC50 [2] of 0.1 nM and an EC50 ([3]; Table 2) of 0.06 nM.
Compound CC[C@H](C)[C@H](NC(=O)[C@H](CO)NC(=O)[C@H](Cc1ccc(O)cc1)NC(=O)[C@H](CC(=O)O)NC(=O)[C@H](CO)NC(=O)[C@@H](NC(=O)[C@H](Cc1ccccc1)NC(=O)[C@@H](NC(=O)CNC(=O)[C@H](CCC(N)=O)NC(=O)C(C)(C)NC(=O)[C@@H](N)Cc1ccc(O)cc1)[C@@H](C)O)[C@@H](C)O)C(=O)N[C@@H](Cc1ccc(O)cc1)C(=O)N[C@@H](CC(C)C)C(=O)N[C@@H](CCC(=O)O)C(=O)N[C@@H](CCCCN)C(=O)N[C@@H](CCCCN)C(=O)N[C@@H](C)C(=O)N[C@@H](C)C(=O)N[C@@H](Cc1c[nH]cn1)C(=O)N[C@@H](CC(=O)O)C(=O)N[C@@H](Cc1ccccc1)C(=O)N[C@H](C(=O)N[C@@H](CCC(=O)O)C(=O)N[C@@H](Cc1c[nH]c2ccccc12)C(=O)N[C@@H](CC(C)C)C(=O)N[C@@H](CC(C)C)C(=O)N[C@@H](CO)C(=O)N[C@@H](C)C(N)=O)C(C)C [Compound 15] (HELM PEPTIDE1{Y.[Aib].Q.G.T.F.T.S.D.Y.S.I.Y.L.E.K.K.A.A.H.D.F.V.E.W.L.L.S.A.[am]}$$$$V2.0) has an EC50 ([1]; Table 2) of 0.016 nM, an EC50 [2] of 0.058 nM and an EC50 ([3]; Table 2) of 0.025 nM.
CC[C@H](C)[C@H](NC(=O)[C@H](CO)NC(=O)[C@H](Cc1ccc(O)cc1)NC(=O)[C@H](CC(=O)O)NC(=O)[C@H](CO)NC(=O)[C@@H](NC(=O)[C@H](Cc1ccccc1)NC(=O)[C@@H](NC(=O)CNC(=O)[C@H](CCC(N)=O)NC(=O)C(C)(C)NC(=O)[C@@H](N)Cc1ccc(O)cc1)[C@@H](C)O)[C@@H](C)O)C(=O)N[C@@H](Cc1ccc(O)cc1)C(=O)N[C@@H](CC(C)C)C(=O)N[C@@H](CC(=O)O)C(=O)N[C@@H](CCCCN)C(=O)N[C@@H](CCCCNC(=O)COCCOCCNC(=O)COCCOCCNC(=O)CC[C@H](NC(=O)CCCCCCCCCCCCCCCCC(=O)O)C(=O)O)C(=O)N[C@@H](C)C(=O)N[C@@H](CCC(N)=O)C(=O)N[C@@H](CCCNC(=N)N)C(=O)N[C@@H](C)C(=O)N[C@@H](Cc1ccccc1)C(=O)N[C@H](C(=O)N[C@@H](CCC(=O)O)C(=O)N[C@@H](Cc1c[nH]c2ccccc12)C(=O)N[C@@H](CC(C)C)C(=O)N[C@@H](CC(C)C)C(=O)N[C@@H](C)C(=O)N[C@@H](CCC(N)=O)C(=O)NCC(=O)N1CCC[C@H]1C(=O)N[C@@H](CO)C(=O)N[C@@H](CO)C(=O)NCC(=O)N[C@@H](C)C(=O)N1CCC[C@H]1C(=O)N1CCC[C@H]1C(=O)N1CCC[C@H]1C(=O)N[C@@H](CO)C(N)=O)C(C)C [Compound 33] (H-Y[Aib]QGTFTSDYSIYLDKK([AEEA-AEEA-γGlu-C18 diacid])AQRAFVEWLLAQGPSSGAPPPS-NH2) gave an EC50 [1, 4] of 0.0093 nM and an EC50 [3, 4] of 0.0099 nM.
